Results published in PubChem BioAssay (NCI).
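Five compound concentrations were applied to cells in 96-well plates for 48 hours; endpoints were derived by simple linear interpolation of the resulting dose-response curve. GI50: concentration for 50% inhibition of growth. Definition used: TGI = concentration required for complete inhibition of growth.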

Key:
Test in all cases: NCI tumour cell line growth inhibition, 48 h
UACC-62 melanoma = system: UACC-62 melanoma
A498 renal = system: A498 renal
OVCAR-8 ovarian = system: OVCAR-8 ovarian
RXF 393 renal = system: RXF 393 renal
EKVX NSCLC = system: EKVX NSCLC
NCI-H23 lung = system: NCI-H23 lung
DU-145 prostate = system: DU-145 prostate
SNB-75 CNS = system: SNB-75 CNS
MCF7 breast = system: MCF7 breast
HCT-116 colon = system: HCT-116 colon
SK-MEL-28 melanoma = system: SK-MEL-28 melanoma
OVCAR-4 ovarian = system: OVCAR-4 ovarian
NCI/ADR-RES ovarian = system: NCI/ADR-RES ovarian
SW-620 colon = system: SW-620 colon
ACHN renal = system: ACHN renal
MDA-MB-468 breast = system: MDA-MB-468 breast
K-562 leukemia = system: K-562 leukemia
MDA-MB-435 = system: MDA-MB-435
OVCAR-3 ovarian = system: OVCAR-3 ovarian
TK-10 renal = system: TK-10 renal
UACC-257 melanoma = system: UACC-257 melanoma
SF-268 CNS = system: SF-268 CNS
HS 578T breast = system: HS 578T breast
OVCAR-5 ovarian = system: OVCAR-5 ovarian
IGROV1 ovarian = system: IGROV1 ovarian
HCT-15 colon = system: HCT-15 colon
T-47D breast = system: T-47D breast
HT29 colon = system: HT29 colon
SN12C renal = system: SN12C renal
MOLT-4 leukemia = system: MOLT-4 leukemia
NCI-H460 lung = system: NCI-H460 lung
SK-MEL-2 melanoma = system: SK-MEL-2 melanoma
RPMI-8226 leukemia = system: RPMI-8226 leukemia
MALME-3M melanoma = system: MALME-3M melanoma
CCRF-CEM leukemia = system: CCRF-CEM leukemia
HCC-2998 colon = system: HCC-2998 colon
NCI-H522 lung = system: NCI-H522 lung
HL-60(TB) leukemia = system: HL-60(TB) leukemia
SK-OV-3 ovarian = system: SK-OV-3 ovarian
U251 CNS = system: U251 CNS
786-0 renal = system: 786-0 renal
SK-MEL-5 melanoma = system: SK-MEL-5 melanoma
SR leukemia = system: SR leukemia
KM12 colon = system: KM12 colon
HOP-92 NSCLC = system: HOP-92 NSCLC
COLO 205 colon = system: COLO 205 colon
BT-549 breast = system: BT-549 breast
CAKI-1 renal = system: CAKI-1 renal
SF-295 CNS = system: SF-295 CNS
A549 NSCLC = system: A549 NSCLC
LOX IMVI melanoma = system: LOX IMVI melanoma
SNB-19 CNS = system: SNB-19 CNS
NCI-H226 lung = system: NCI-H226 lung
PC-3 prostate = system: PC-3 prostate
SF-539 CNS = system: SF-539 CNS
MDA-MB-231 breast = system: MDA-MB-231 breast
M14 melanoma = system: M14 melanoma
UO-31 renal = system: UO-31 renal
HOP-62 NSCLC = system: HOP-62 NSCLC

Q: For OC(c1ccccc1)(c1ccccc1)C1CCN(c2ccc3nnc(Cl)n3n2)CC1, which GI50 (UACC-62 melanoma) is on record?
A: 14.6 µM

Q: And the TGI (UACC-62 melanoma)?
A: 30.4 µM

Q: What about the GI50 (A498 renal) of the same molecule?
A: 16.8 µM

Q: What about the TGI (A498 renal) of the same molecule?
A: 32.6 µM

Q: And the GI50 (OVCAR-8 ovarian)?
A: 25.7 µM

Q: What about the TGI (OVCAR-8 ovarian) of the same molecule?
A: 76.9 µM

Q: And the GI50 (RXF 393 renal)?
A: 14.5 µM

Q: What about the TGI (RXF 393 renal) of the same molecule?
A: 29.4 µM

Q: And the GI50 (EKVX NSCLC)?
A: 15.5 µM

Q: What about the TGI (EKVX NSCLC) of the same molecule?
A: 54.3 µM

Q: What about the GI50 (NCI-H23 lung) of the same molecule?
A: 16.8 µM

Q: And the TGI (NCI-H23 lung)?
A: 37.3 µM

Q: What about the GI50 (DU-145 prostate) of the same molecule?
A: 24 µM

Q: What about the TGI (DU-145 prostate) of the same molecule?
A: > 100 µM

Q: And the GI50 (SNB-75 CNS)?
A: 14.6 µM

Q: And the TGI (SNB-75 CNS)?
A: 36.9 µM

Q: And the GI50 (MCF7 breast)?
A: 16.2 µM

Q: And the TGI (MCF7 breast)?
A: 44.2 µM

Q: And the GI50 (HCT-116 colon)?
A: 14.1 µM

Q: And the TGI (HCT-116 colon)?
A: 39.1 µM

Q: And the GI50 (SK-MEL-28 melanoma)?
A: 18.3 µM

Q: And the TGI (SK-MEL-28 melanoma)?
A: 43 µM

Q: What about the GI50 (OVCAR-4 ovarian) of the same molecule?
A: 23.2 µM

Q: And the TGI (OVCAR-4 ovarian)?
A: > 100 µM

Q: And the GI50 (NCI/ADR-RES ovarian)?
A: 18 µM

Q: What about the TGI (NCI/ADR-RES ovarian) of the same molecule?
A: 63.3 µM

Q: What about the GI50 (SW-620 colon) of the same molecule?
A: 25 µM

Q: What about the TGI (SW-620 colon) of the same molecule?
A: 67.8 µM

Q: What about the GI50 (ACHN renal) of the same molecule?
A: 14.2 µM

Q: What about the TGI (ACHN renal) of the same molecule?
A: 44.8 µM

Q: What about the GI50 (MDA-MB-468 breast) of the same molecule?
A: 13 µM

Q: And the TGI (MDA-MB-468 breast)?
A: 35.4 µM

Q: What about the GI50 (K-562 leukemia) of the same molecule?
A: 14 µM

Q: And the TGI (K-562 leukemia)?
A: > 100 µM

Q: And the GI50 (MDA-MB-435)?
A: 19.5 µM

Q: What about the TGI (MDA-MB-435) of the same molecule?
A: 43.3 µM

Q: What about the GI50 (OVCAR-3 ovarian) of the same molecule?
A: 21.1 µM

Q: And the TGI (OVCAR-3 ovarian)?
A: 65.7 µM

Q: What about the GI50 (TK-10 renal) of the same molecule?
A: 22.9 µM

Q: And the TGI (TK-10 renal)?
A: 62.5 µM

Q: And the GI50 (UACC-257 melanoma)?
A: 18.5 µM

Q: What about the TGI (UACC-257 melanoma) of the same molecule?
A: 37.9 µM

Q: What about the GI50 (SF-268 CNS) of the same molecule?
A: 26.3 µM

Q: What about the TGI (SF-268 CNS) of the same molecule?
A: > 100 µM

Q: What about the GI50 (HS 578T breast) of the same molecule?
A: 22 µM

Q: What about the TGI (HS 578T breast) of the same molecule?
A: 53.2 µM

Q: What about the GI50 (OVCAR-5 ovarian) of the same molecule?
A: 17.5 µM

Q: And the TGI (OVCAR-5 ovarian)?
A: 45.2 µM

Q: And the GI50 (IGROV1 ovarian)?
A: 16.4 µM

Q: And the TGI (IGROV1 ovarian)?
A: 41.9 µM

Q: And the GI50 (HCT-15 colon)?
A: 15.7 µM

Q: And the TGI (HCT-15 colon)?
A: 54.2 µM

Q: What about the GI50 (T-47D breast) of the same molecule?
A: 20.6 µM

Q: What about the TGI (T-47D breast) of the same molecule?
A: > 100 µM

Q: What about the GI50 (HT29 colon) of the same molecule?
A: 16.9 µM

Q: What about the TGI (HT29 colon) of the same molecule?
A: 36.4 µM

Q: What about the GI50 (SN12C renal) of the same molecule?
A: 17.5 µM

Q: And the TGI (SN12C renal)?
A: 40 µM

Q: What about the GI50 (MOLT-4 leukemia) of the same molecule?
A: 4.18 µM

Q: And the TGI (MOLT-4 leukemia)?
A: 31.6 µM

Q: What about the GI50 (NCI-H460 lung) of the same molecule?
A: 14.1 µM

Q: What about the TGI (NCI-H460 lung) of the same molecule?
A: 32.6 µM

Q: What about the GI50 (SK-MEL-2 melanoma) of the same molecule?
A: 16.5 µM

Q: And the TGI (SK-MEL-2 melanoma)?
A: 32.8 µM

Q: And the GI50 (RPMI-8226 leukemia)?
A: 9.29 µM

Q: What about the TGI (RPMI-8226 leukemia) of the same molecule?
A: 50.8 µM

Q: What about the GI50 (MALME-3M melanoma) of the same molecule?
A: 19.5 µM

Q: And the TGI (MALME-3M melanoma)?
A: 33.9 µM

Q: And the GI50 (CCRF-CEM leukemia)?
A: 12.8 µM

Q: What about the TGI (CCRF-CEM leukemia) of the same molecule?
A: > 100 µM

Q: What about the GI50 (HCC-2998 colon) of the same molecule?
A: 15.5 µM

Q: What about the TGI (HCC-2998 colon) of the same molecule?
A: 29.9 µM

Q: What about the GI50 (NCI-H522 lung) of the same molecule?
A: 15.6 µM

Q: And the TGI (NCI-H522 lung)?
A: 49.1 µM

Q: And the GI50 (HL-60(TB) leukemia)?
A: 12.7 µM

Q: What about the TGI (HL-60(TB) leukemia) of the same molecule?
A: 42.9 µM

Q: What about the GI50 (SK-OV-3 ovarian) of the same molecule?
A: 42.1 µM

Q: What about the TGI (SK-OV-3 ovarian) of the same molecule?
A: > 100 µM

Q: And the GI50 (U251 CNS)?
A: 18 µM

Q: And the TGI (U251 CNS)?
A: 39.6 µM

Q: And the GI50 (786-0 renal)?
A: 25 µM

Q: What about the TGI (786-0 renal) of the same molecule?
A: 71.8 µM

Q: What about the GI50 (SK-MEL-5 melanoma) of the same molecule?
A: 13.7 µM

Q: What about the TGI (SK-MEL-5 melanoma) of the same molecule?
A: 26.6 µM

Q: And the GI50 (SR leukemia)?
A: 10.9 µM

Q: What about the TGI (SR leukemia) of the same molecule?
A: 47.5 µM

Q: And the GI50 (KM12 colon)?
A: 16.2 µM

Q: What about the TGI (KM12 colon) of the same molecule?
A: 42.5 µM

Q: What about the GI50 (HOP-92 NSCLC) of the same molecule?
A: 10.8 µM

Q: And the TGI (HOP-92 NSCLC)?
A: 29 µM

Q: And the GI50 (COLO 205 colon)?
A: 18.3 µM

Q: And the TGI (COLO 205 colon)?
A: 46.2 µM

Q: And the GI50 (BT-549 breast)?
A: 13.9 µM

Q: And the TGI (BT-549 breast)?
A: 29.8 µM

Q: What about the GI50 (CAKI-1 renal) of the same molecule?
A: 15.6 µM

Q: What about the TGI (CAKI-1 renal) of the same molecule?
A: 81.3 µM

Q: What about the GI50 (SF-295 CNS) of the same molecule?
A: 17 µM

Q: And the TGI (SF-295 CNS)?
A: 54.1 µM

Q: What about the GI50 (A549 NSCLC) of the same molecule?
A: 18 µM

Q: And the TGI (A549 NSCLC)?
A: > 100 µM

Q: What about the GI50 (LOX IMVI melanoma) of the same molecule?
A: 15.3 µM

Q: What about the TGI (LOX IMVI melanoma) of the same molecule?
A: 29 µM

Q: And the GI50 (SNB-19 CNS)?
A: 36.3 µM

Q: And the TGI (SNB-19 CNS)?
A: > 100 µM

Q: And the GI50 (NCI-H226 lung)?
A: 14.5 µM

Q: What about the TGI (NCI-H226 lung) of the same molecule?
A: 38.9 µM

Q: What about the GI50 (PC-3 prostate) of the same molecule?
A: 8.75 µM

Q: What about the TGI (PC-3 prostate) of the same molecule?
A: 62.2 µM

Q: What about the GI50 (SF-539 CNS) of the same molecule?
A: 17.2 µM

Q: What about the TGI (SF-539 CNS) of the same molecule?
A: 38.7 µM

Q: What about the GI50 (MDA-MB-231 breast) of the same molecule?
A: 15.4 µM

Q: And the TGI (MDA-MB-231 breast)?
A: 30.4 µM

Q: What about the GI50 (M14 melanoma) of the same molecule?
A: 17.4 µM

Q: What about the TGI (M14 melanoma) of the same molecule?
A: 34.9 µM

Q: And the GI50 (UO-31 renal)?
A: 11 µM

Q: And the TGI (UO-31 renal)?
A: 29.1 µM

Q: And the GI50 (HOP-62 NSCLC)?
A: 44 µM

Q: And the TGI (HOP-62 NSCLC)?
A: > 100 µM
